Assay [1] has as its system FLT 3/4. The following applies: cited from earlier work.
Assay [2] concerns serine/threonine kinase MAPK (mitogen-activated protein kinase). The following applies: cited from earlier work.
The target in assay [3] is VEGFR 2 (Homo sapiens, UniProt P35968). The following applies: cited from earlier work.
Assay [4] relates to MEK 1/2. Particulars: cited from earlier work.
Assay [5] has as its target PDGFRb (Homo sapiens, UniProt P09619). Nature of the assay: Assay for inhibitory activity against kinase. The following applies: read-out: % Inhibition (1 uM).
The test system of assay [6] is MV4-11 cell line. As to the kind of experiment: Suppressive activity against growth of AML cells (MTT assay). The assay is classed as cell-based. The following applies: Homo sapiens, MV4-11 cancer cell line, 48 hrs treatment. How it is done: The MV4-11 cell line was grown at 37° C. in RPMI medium [Gibco, New York, USA/10% FBS (Gibco), containing 1% penicillin/streptomycin (Gibco)] in a 5% CO2 atmosphere. The grown MV4-11 cell line was withdrawn into PBS, seeded at a density of 3×10^4 cells/well into 96-well plates, and cultured at 37° C. for 24 hrs in a 5% CO2 atmosphere. Various concentrations of the compound (8 points) were prepared by serial dilution in 10 mM DMSO, and the MV4-11 cell line was treated with various concentrations of the compound for 48 hrs. To assess cell viability, 3-(4,5-dimethylthiazol-2-yl)-2,5-diphenyl tetrazolium bromide (MTT) assay (CellTiter 96 Assay, Promega) was performed.
Briefly, the dye was added in an amount of 15 μL to each well and incubated for 2 hrs. Then, each well was incubated with 100 μL of a stop solution for 24 hrs, followed by reading absorbance at 590 nm on EnVision2103. GI50 was calculated using GraphPad Prism 4.0.
In general terms: Tetrazolium assays rely on reduction of a dye to a coloured formazan, in cell work by metabolically active cells.

The target in assay [7] is FLT1/VEGFR1 (Homo sapiens, UniProt P17948). As to the kind of experiment: Assay for inhibitory activity against kinase. Particulars: read-out: % Inhibition (1 uM).
Assay [8] concerns Molm-14. As to the kind of experiment: Suppressive activity against growth of AML cells (MTT assay). The format is cell-based. The following applies: Homo sapiens; Molm-14 cancer cell line.

These results are taken from patent US20140155635A1, “RESORCYLIC ACID LACTONE COMPOUNDS” (KOREA INSTITUTE OF SCIENCE AND TECHNOLOGY, priority 2012, published 2014).

In general, inhibition refers to the drop in the measured response relative to a control, in per cent. Usually GI50 stands for the concentration at which growth is held to half of that of the control.

PDGFRb, sequence (P09619 33-1106): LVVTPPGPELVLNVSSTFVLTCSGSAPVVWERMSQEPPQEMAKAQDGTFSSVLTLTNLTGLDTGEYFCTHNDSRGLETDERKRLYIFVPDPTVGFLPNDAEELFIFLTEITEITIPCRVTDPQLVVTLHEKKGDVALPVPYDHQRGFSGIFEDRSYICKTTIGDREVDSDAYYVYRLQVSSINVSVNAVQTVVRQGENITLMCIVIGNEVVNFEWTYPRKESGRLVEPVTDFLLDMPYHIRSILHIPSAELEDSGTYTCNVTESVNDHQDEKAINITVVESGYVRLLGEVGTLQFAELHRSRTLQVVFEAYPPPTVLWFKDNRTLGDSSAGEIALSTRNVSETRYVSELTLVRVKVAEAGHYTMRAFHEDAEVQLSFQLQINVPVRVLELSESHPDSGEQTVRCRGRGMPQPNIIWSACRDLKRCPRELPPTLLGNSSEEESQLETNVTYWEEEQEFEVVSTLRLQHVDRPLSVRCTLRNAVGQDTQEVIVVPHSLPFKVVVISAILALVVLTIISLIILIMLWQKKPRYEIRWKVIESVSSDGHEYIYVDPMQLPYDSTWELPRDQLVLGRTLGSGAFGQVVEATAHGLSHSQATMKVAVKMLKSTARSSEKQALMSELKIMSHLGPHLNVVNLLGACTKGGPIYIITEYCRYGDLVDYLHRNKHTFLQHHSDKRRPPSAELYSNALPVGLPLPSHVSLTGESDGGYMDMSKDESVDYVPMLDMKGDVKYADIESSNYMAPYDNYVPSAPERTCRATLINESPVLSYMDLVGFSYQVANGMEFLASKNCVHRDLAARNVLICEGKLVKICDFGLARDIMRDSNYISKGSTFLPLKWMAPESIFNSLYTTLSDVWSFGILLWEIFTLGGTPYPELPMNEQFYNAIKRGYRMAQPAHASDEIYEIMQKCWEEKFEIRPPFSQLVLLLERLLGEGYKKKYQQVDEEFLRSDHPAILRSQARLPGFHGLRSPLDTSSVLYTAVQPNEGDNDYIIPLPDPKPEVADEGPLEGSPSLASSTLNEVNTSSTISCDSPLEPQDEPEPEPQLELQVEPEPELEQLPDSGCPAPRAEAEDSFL
FLT1/VEGFR1, sequence (P17948 27-1338): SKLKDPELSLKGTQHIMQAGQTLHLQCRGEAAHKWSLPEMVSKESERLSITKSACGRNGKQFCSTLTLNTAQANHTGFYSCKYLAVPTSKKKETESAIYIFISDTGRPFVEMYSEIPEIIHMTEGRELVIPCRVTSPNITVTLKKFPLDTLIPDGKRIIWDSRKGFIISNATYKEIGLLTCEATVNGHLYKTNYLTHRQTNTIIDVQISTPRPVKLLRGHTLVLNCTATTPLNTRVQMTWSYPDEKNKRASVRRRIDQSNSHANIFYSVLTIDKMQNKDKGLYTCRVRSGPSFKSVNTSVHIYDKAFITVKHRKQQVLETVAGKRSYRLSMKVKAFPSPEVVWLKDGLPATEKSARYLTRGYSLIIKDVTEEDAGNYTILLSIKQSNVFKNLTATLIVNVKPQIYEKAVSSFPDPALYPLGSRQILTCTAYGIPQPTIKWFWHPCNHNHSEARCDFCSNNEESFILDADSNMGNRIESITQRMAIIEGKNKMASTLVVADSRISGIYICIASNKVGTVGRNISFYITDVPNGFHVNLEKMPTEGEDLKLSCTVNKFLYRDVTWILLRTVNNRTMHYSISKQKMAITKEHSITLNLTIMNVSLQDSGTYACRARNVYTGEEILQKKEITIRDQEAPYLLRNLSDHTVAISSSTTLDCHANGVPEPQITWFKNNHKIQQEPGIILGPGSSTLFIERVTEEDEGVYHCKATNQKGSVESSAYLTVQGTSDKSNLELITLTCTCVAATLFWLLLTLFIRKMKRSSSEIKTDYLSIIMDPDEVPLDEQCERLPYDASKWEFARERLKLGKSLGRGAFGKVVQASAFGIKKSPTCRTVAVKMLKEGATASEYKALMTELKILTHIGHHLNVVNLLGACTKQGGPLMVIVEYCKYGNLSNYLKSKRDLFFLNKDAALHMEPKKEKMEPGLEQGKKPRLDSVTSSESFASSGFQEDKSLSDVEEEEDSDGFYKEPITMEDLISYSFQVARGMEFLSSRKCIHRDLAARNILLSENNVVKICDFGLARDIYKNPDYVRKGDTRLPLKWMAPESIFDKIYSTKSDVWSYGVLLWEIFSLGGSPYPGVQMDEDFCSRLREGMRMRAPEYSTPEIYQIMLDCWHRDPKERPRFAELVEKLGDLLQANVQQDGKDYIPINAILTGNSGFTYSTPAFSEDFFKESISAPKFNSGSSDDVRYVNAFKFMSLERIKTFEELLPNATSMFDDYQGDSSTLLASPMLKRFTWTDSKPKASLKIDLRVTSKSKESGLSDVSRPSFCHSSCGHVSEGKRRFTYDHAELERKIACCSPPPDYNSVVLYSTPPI
VEGFR 2, sequence (P35968 20-1356, species assumed): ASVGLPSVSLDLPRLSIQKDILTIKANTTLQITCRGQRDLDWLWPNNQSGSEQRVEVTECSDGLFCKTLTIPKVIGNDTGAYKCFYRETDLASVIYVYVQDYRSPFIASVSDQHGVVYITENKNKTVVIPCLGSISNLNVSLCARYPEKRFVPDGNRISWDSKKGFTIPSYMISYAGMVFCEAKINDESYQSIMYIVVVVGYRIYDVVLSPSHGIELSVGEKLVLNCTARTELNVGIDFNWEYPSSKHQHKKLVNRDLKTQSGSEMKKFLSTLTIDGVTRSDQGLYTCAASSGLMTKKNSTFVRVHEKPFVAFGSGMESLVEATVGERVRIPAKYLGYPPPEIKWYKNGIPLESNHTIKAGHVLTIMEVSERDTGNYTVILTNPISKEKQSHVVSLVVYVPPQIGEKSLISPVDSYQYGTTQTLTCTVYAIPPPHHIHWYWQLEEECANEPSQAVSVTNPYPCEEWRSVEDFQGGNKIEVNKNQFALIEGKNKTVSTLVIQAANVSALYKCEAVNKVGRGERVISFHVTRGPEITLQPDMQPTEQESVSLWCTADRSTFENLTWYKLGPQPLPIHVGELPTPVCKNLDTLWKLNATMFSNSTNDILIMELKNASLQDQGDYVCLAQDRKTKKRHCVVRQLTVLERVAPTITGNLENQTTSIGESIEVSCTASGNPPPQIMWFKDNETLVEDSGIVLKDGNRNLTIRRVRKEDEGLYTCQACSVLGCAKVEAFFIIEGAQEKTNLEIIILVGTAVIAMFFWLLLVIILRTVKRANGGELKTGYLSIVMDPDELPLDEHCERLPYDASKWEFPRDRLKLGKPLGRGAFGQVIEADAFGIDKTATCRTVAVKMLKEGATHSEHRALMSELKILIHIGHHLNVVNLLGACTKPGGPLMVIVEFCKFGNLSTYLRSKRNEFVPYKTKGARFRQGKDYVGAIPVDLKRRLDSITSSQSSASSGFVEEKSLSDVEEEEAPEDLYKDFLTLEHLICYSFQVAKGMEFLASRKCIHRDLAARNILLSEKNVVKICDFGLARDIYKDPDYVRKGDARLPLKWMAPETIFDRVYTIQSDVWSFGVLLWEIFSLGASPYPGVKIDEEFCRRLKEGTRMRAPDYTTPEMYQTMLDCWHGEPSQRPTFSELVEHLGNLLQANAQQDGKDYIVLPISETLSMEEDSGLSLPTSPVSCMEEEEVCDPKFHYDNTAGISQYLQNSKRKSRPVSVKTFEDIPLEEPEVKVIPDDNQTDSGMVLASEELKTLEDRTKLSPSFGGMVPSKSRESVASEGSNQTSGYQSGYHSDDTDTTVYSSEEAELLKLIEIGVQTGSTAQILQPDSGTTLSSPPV

As for `COc1cc(O)c2c(c1)CCC[C@H](O)[C@H](O)C(=O)/C=C\C[C@H](C)OC2=O` [Compound L-783277], in assay [1], the “inhibitory activity against FLT 3/4” value is given as “potent inhibitory activity”. Moreover, the “inhibition of MAPK (mode)” value in assay [2] is recorded as “irreversible ATP competitive inhibitor”. Further, the “inhibitory activity against VEGFR 2” value in assay [3] is “potent inhibitory activity”. Besides, the “inhibitory activity against MEK 1/2” value in assay [4] is given as “potent inhibitory activity”.
For `COc1cc(O)c2c(c1)-c1cccc(c1)[C@@H](O)[C@H](O)C(=O)/C=C\C[C@H](C)OC2=O` [Cpd. 24], the inhibition at 1 µM in assay [5] turned out to be 70%; in assay [7] it was 64%. Besides, the GI50 came to 30 nM in assay [6] and 90 nM in assay [8].
